# Like-named read-outs stand apart in the source and are kept apart here.
# How the values were obtained:
# [1] = system: HR+ advanced breast cancer; parameters: method as in PMID 32887722; details: in combination with ribociclib and fulvestrant; cited from earlier work
# [2] = system: PIK3CA-mutated, HR+, HER2- ABC; parameters: method as in doi:10.1158/1538-7445.SABCS23-GS03-13; details: with fulvestrant and palbociclib, first-line treatment; cited from earlier work
# [3] = Plasma pharmacokinetics, noncompartmental analysis (LC-MS/MS); assay type: in vivo, human
# Method: In parts E, F, and H, PK sampling was performed for all analytes pre-dose on Cycle 1 Day 1, Cycle 1 Day 15, and Cycle 2 Day 1, as well as at 1, 2, 4, 6, 8, and 10 hours after dosing on Cycle 1 Day 1 and Cycle 2 Day 1. In Part H, PK sampling was performed for all analytes pre-dose on Cycle 1 Day 1, Cycle 1 Day 15, and Cycle 2 Day 1, as well as at 1, 2, 4, 6, 8, and 10 hours after dosing on Cycle 1 Day 1 and 2, 4, 6, 8, and 10 hours after dosing on Cycle 2 Day 1. In Parts F and H, additional samples were drawn pre-dose on Day 1 of Cycles 3–5 and after trastuzumab infusion on Day 1 of Cycles 1–5. In part H, additional samples were also drawn after pertuzumab infusion on Day 1 Cycle 4 and 5. In Part G, an additional pre-dose sample was drawn on Cycle 3 Day 1, and fulvestrant samples were obtained pre-dose on Day 1 of Cycles 1–3 and Day 15 of Cycle 1.
# Samples were analyzed for abemaciclib (and its metabolites), exemestane, everolimus, fulvestrant, LY3023414, and pertuzumab using a validated liquid chromatography-tandem mass spectrometry method (abemaciclib and metabolites: Q^2 solutions, Ithaca, NY, USA; exemestane and everolimus: BASi, West Lafayette, IN, USA; fulvestrant: Charles River Laboratories, Montreal, Quebec, Canada; LY3023414: Covance Laboratories Inc, Madison, WI, USA; pertuzumab: Altasciences Company Inc., Quebec, Canada). Trastuzumab was analyzed using a validated Gyrolab xP method (PPD, Richmond, VA, USA).
# Standard noncompartmental PK parameters were computed using Phoenix WinNonlin 64 Build 8.0/8.1 (Pharsight Corporation, Mountain View, CA, USA). This analysis included estimation of Cmax, tmax, Clast, tlast, and AUC0-tlast. AUC calculations were performed using the log linear trapezoidal method.
# [4] = system: HER2+ breast cancer; details: abemaciclib combined with fulvestrant and trastuzumab versus standard of care chemotherapy plus trastuzumab; cited from earlier work
# [5] = system: patients with HR+, HER2- or HER2+ metastatic breast cancer; test: Patient disposition and dose adjustments; details: Part G, with abemaciclib and fulvestrant
structure (smiles),measurement,setting,value
Nc1cc(C(F)(F)F)c(-c2cc(N3CCOCC3)nc(N3CCOCC3)n2)cn1 [buparlisib],Feasibility of the combination,[1],not to be feasible due to toxicity
C[C@H](Nc1ccc2c(c1)OCCn1cc(N3C(=O)OC[C@H]3C(F)F)nc1-2)C(N)=O [inavolisib],Progression-free survival,[2],statistically significant improvement
CCN1CCN(Cc2ccc(Nc3ncc(F)c(-c4cc(F)c5nc(C)n(C(C)C)c5c4)n3)nc2)CC1 [abemaciclib],mean accumulation ratio (based on Cmax),"[3]; Part E Cohort 1, abemaciclib 150 mg Q12H with exemestane + everolimus",3.16
same,mean AUC0-tlast,"[3]; Part E Cohort 1, multiple doses abemaciclib 150 mg Q12H with exemestane + everolimus",3280 hr^*ng/mL
same,mean AUC0-tlast,"[3]; Part E Cohort 1, single dose abemaciclib 150 mg with exemestane + everolimus",771 hr^*ng/mL
same,mean AUC0-tlast,"[3]; Part E Cohort 2, single dose abemaciclib 200 mg with exemestane + everolimus",984 hr^*ng/mL
same,accumulation ratio based on Cmax,"[3]; Part F, abemaciclib 150 mg Q12H with trastuzumab",2.13
same,mean AUC0-tlast,"[3]; Part H, single dose abemaciclib 100 mg with trastuzumab and pertuzumab",343 hr^*ng/mL
same,Effect on the pharmacokinetics of the combination study drugs,[3]; Parts E–H,no effect
same,Abemaciclib exposures compared with monotherapy PK data,[3]; all combination therapies tested,consistent with monotherapy PK data
same,Cmax,"[3]; human, plasma, oral, 100 mg, Part H, single dose abemaciclib 100 mg with trastuzumab and pertuzumab, read-out: mean Cmax",71.5 ng/mL
same,Cmax,"[3]; human, plasma, oral, 150 mg, Part E Cohort 1, multiple doses abemaciclib 150 mg Q12H with exemestane + everolimus, read-out: mean Cmax",452 ng/mL
same,Cmax,"[3]; human, plasma, oral, 150 mg, Part E Cohort 1, single dose abemaciclib 150 mg with exemestane + everolimus, plasma, read-out: mean Cmax",157 ng/mL
same,Cmax,"[3]; human, plasma, oral, 150 mg, Part F, abemaciclib 150 mg Q12H with trastuzumab, read-out: steady-state mean Cmax",242 ng/mL
same,Cmax,"[3]; human, plasma, oral, 200 mg, Part E Cohort 2, single dose abemaciclib 200 mg with exemestane + everolimus, plasma, read-out: mean Cmax",191 ng/mL
same,Cmax,"[3]; human, plasma, oral, Part F, single dose abemaciclib (150 mg or 200 mg) with trastuzumab, range over dose cohorts, read-out: mean Cmax",133 to 148 ng/mL
same,Cmax,"[3]; human, plasma, oral, Part G, single dose 150 mg abemaciclib with 500 mg fulvestrant and 100 mg or 150 mg LY3023414, range over cohorts, read-out: abemaciclib mean Cmax",131 to 139 ng/mL
same,AUC(0-t),"[3]; human, plasma, oral, Part F, abemaciclib 150 mg Q12H with trastuzumab, read-out: steady-state mean AUC0-tlast",1660 ng·h/mL
same,Progression-free survival,[4],significantly improved
CO[C@@H](C)Cn1c(=O)n(C)c2cnc3ccc(-c4cncc(C(C)(C)O)c4)cc3c21 [LY3023414],Additional patients who discontinued LY3023414 due to AEs,[5],two
same,LY3023414 dose adjustments,[5]; 12 patients,10 patients
same,LY3023414 dose omission,[5]; 12 patients,eight
same,LY3023414 dose reduction,[5]; 12 patients,seven
Cc1nc(NC(=O)N2CCC[C@H]2C(N)=O)sc1-c1ccnc(C(C)(C)C(F)(F)F)c1 [alpelisib],Feasibility of the combination,[1],not to be feasible due to toxicity
